Measured values published in ChEMBL document CHEMBL3507680, “University of Dundee, Gates Library screen for HepG2 cell viability”.

Assay: Human HepG2 cell viability assay in 384 well format
Type: toxicity, cell-based
Parameters: dose 125 nL, time 70.5 hour; cytotoxicity at 70.5 h: concentration not given beside the values
Details: HepG2 cells, read-out: Inhibition

Row | SMILES | cytotoxicity at 70.5 h [%]
1 | Cc1cc(C2CCCN(Cc3cccnc3)C2)n[nH]1 (stereo not drawn) | 47.5
2 | CS(=O)(=O)NC1CCN(Cc2coc(-c3ccc(Cl)cc3)n2)CC1 | 7.7
3 | CN(Cc1ccsc1)C(=O)c1nc(N2CCCC2)ncc1Cl | -6.35
4 | O=C(c1nc(N2CCCC2)ncc1Cl)N1CCN(Cc2ccsc2)CC1 | 29
5 | CC(C)CN1CCC(NC(=O)N(C)Cc2csc3ccccc23)CC1 | -3.08
6 | Cc1cc(C)n(C2CN(c3nc(-c4ccncc4)nc4c3CCC4)C2)n1 | -8.99
7 | O=C(Nc1ccccc1F)NC1(CO)CCOCC1 | -12.1
8 | CNC(=O)Cc1ccccc1NC(=O)N[C@H]1c2ccccc2C[C@H]1O | -13.7
9 | CC(C)Oc1ccccc1CNC(=O)N(C)C(C)CS(C)(=O)=O (stereo not drawn) | 16.1
10 | N#Cc1ccc(NCc2cccnc2N2CCC(C(N)=O)CC2)cn1 | -7.33
11 | COc1ccccc1CCNC(=O)N(C)C(C)CS(C)(=O)=O (stereo not drawn) | 24.3
12 | CN(C)C(=O)c1ccccc1NC(=O)N[C@@H]1c2ccccc2C[C@@H]1O | 0.722
13 | O=C(c1cc(C2CC2)nc2onc(-c3ccccc3)c12)N1CC[C@H](O)C1 | -4.91
14 | O=C(c1cc(C2CC2)nc2onc(-c3ccccc3)c12)N1CC(O)C1 | 16.9
15 | CC(C)(C)OC(=O)N[C@H]1CCN(c2cncc(Br)c2)C1 | 23.7
16 | Cc1c(Br)cccc1CSc1nnc(CO)n1C | 14
17 | COC(=O)C(NC(=O)c1cc(C)ccc1C)c1cccnc1 (stereo not drawn) | -0.114
18 | COC(=O)C(NC(=O)c1cc(F)cc(F)c1)c1cccnc1 (stereo not drawn) | -8.87
19 | CCC(C)C(=O)N(Cc1ccccn1)C1CC1 (stereo not drawn) | 25.9
20 | O=C(C1CCCN(c2nc3ccccc3cc2CO)C1)N1CCCC1 (stereo not drawn) | 20.7
21 | Cc1ccc(CNC(CCO)C2CCCCC2)nc1 (stereo not drawn) | -1.61
22 | Cc1ncccc1CNC(CCO)C1CCCCC1 (stereo not drawn) | 1.16

Row | SMILES | cytotoxicity at 70.5 h [%]
23 | O=C(CNC1(CCO)CCOCC1)Nc1ccc(F)cc1F | 10.9
24 | Cc1nc(CN2CCCCC2Cn2cccn2)nc2ccccc12 (stereo not drawn) | -5.42
25 | Cn1nc(C(=O)NCCc2ccc(OC3CCCC3)cc2)ccc1=O | 12.1
26 | COc1ccc(COCC(=O)N2CCC(c3nncn3C)CC2)cc1 | -12.3
27 | CCc1nnc2n1CCN(C(=O)CCc1ccc(C)c(Cl)c1)C2 | -1.97
28 | N#Cc1ccc(N2CCC(OCCc3ccccc3)CC2)nc1 | -13.8
29 | COC(=O)COc1nc(C(C)C)no1 | -10.1
30 | CN(C1CCN(C(=O)NCCc2ccc(F)cc2F)CC1)S(C)(=O)=O | -5.3
31 | COc1ccc(C(=O)CCC(=O)NCc2c(C)noc2C)cc1F | 23.7
32 | COc1ccc(CNCC2CN(C3CC3)CCO2)cc1OC (stereo not drawn) | -7.17
33 | Cn1cnnc1C1CCN(C(=O)COCc2ccccc2Cl)CC1 | -11.8
34 | CCc1n[nH]c(C2CN(C(=O)CCOCC(F)(F)F)CCO2)n1 (stereo not drawn) | -12.9
35 | O=C(CN1CC(n2cccn2)C1)NCC1(c2ccccc2)CCC1 | 13.6
36 | c1ncn(CCNC2CCCN(Cc3noc(C4CC4)n3)C2)n1 (stereo not drawn) | -11.2
37 | CC(NC(=O)Nc1ccncc1)c1ccc2c(c1)CC(=O)N2 (stereo not drawn) | -7.01
38 | O=C(NCCCN1CCN(c2ncccn2)CC1)Nc1ccccn1 | -2.48
39 | NC(=O)CC1CCN(C(=O)c2cnc(-c3ccccc3F)s2)CC1 | -22.8
40 | Cc1cc(N2CCc3c(nc(C(C)C)n3C)C2)nc(N)n1 | -10.6
41 | N#CCCN(Cc1cccnc1)C(=O)c1ccc(OCC2CC2)cc1 | -4.18
42 | OC(CN1CCN(CC(F)F)CC1)c1ccc(Br)cc1 (stereo not drawn) | 1.14
43 | OC(CN1CCN(CC2CCCCC2)CC1)c1ccccc1 (stereo not drawn) | -8.48
